Test results published in US5306732A, “Tumor necrosis factor antagonist” (Xenova Limited, priority 1989, dated 1994).

Columns and labels:
TNF-receptor = TNF-receptor binding assay: binding of [125 I]-TNF to intact HL 60 cells; conditions: [125 I]-TNF 700pM, 2 hours at room temperature
Description: An in-vitro binding assay, based upon the measurement of binding of [^125 I]-TNF to intact cells, was used to measure the TNF/vinigrol interaction. The assay is similar to that of Imamura et al, J. Biol. Chem, 263, 10247-10253 (1988). More particularly, HL 60 cells (ATCC CCL 240) were grown in RPMI 1640 medium containing 10% foetal calf serum (FCS) and 1mM glutamine to a density of 1×10^6 /ml and harvested by centrifugation at 150g for 10 minutes. Cells were resuspended to a density of 2×10^7 /ml in RPMI 1640 containing 1% bovine serum albumin. [^125 I]-TNF was diluted to 2.1nM in the above buffer containing 0.6% sodium azide. Non-specific binding was estimated by measuring the binding in the presence of a 100 fold excess of unlabelled TNF. [^125 I]-TNF, final concentration 700pM, vinigrol at the stated concentration and cells at a density of 5×10^6 /ml were incubated in the above buffer for 2 hours at room temperature. The reaction was terminated by filtering onto a LKB filter mat (1205-401) followed by extensive washing with phosphate-buffered saline: The filter mat was counted for radioactivity to determine the quantity of bound [^125 I)-TNF.

L929 cells = assay: cells; type: cell-based; conditions: Mus musculus, L929, read-out: Inhibition of TNF-induced cytotoxicity
Description: (§1) TNF causes lysis at low concentrations in sensitive cell lines. A cell line, known to be sensitive to TNF, was challenged with the cytokine in the presence of vinigrol and the reduction in cell mortality (as measured by cell staining) quantified in a manner similar to the method of Matthews, Immunology, 48, 321 (1982). A measurement of the cytotoxicity of vinigrol at the various concentrations was also carried out. L929 cells (4×10^4 /well) were incubated in RPMI 1640 medium containing 10ng/ml TNF, 0.05% lactalbumin hydrolysate and 1μg/ml actinomycin D plus the stated concentration of vinigrol overnight at […]. Cells were washed, fixed with methanol, stained with crystal violet and the cell density quantified by measuring absorbance at 590nm. The cytotoxicity of the samples was determined using the above method but excluding the TNF, in which experiments cell death would be due to the added vinigrol.

in vitro = type: cell-based; conditions: mouse, l929 cells
Description: as §1

CC(C)C1CCC(C)C2CCC(C)C3(O)C1C=C(CO)C(O)C23 (stereo not drawn) [Vinigrol]
Inhibition of [125 I]-TNF-binding (TNF-receptor; vinigrol 3.1 μM): 8% | Inhibition of [125 I]-TNF-binding (TNF-receptor; vinigrol 31 μM): 12% | Inhibition of [125 I]-TNF-binding (TNF-receptor; vinigrol 310 μM): 100% | inhibition at 3.1 µM (L929 cells): 91% | inhibition at 15.5 µM (L929 cells): 100% | inhibition at 77.5 µM (L929 cells): 100% | cytotoxicity at 3.1 µM (in vitro): 30% | cytotoxicity at 15.5 µM (in vitro): 0% | cytotoxicity at 77.5 µM (in vitro): 7%
